Source: patent publication US20120245137A1 (Zalicus Pharmaceuticals Ltd., priority 2009, published 2012)
Like-named read-outs stand apart in the source and are kept apart here.

Assays:
Assay type in all cases: cell-based
Human Cav 2.2 channels = Human Cav 2.2 channels (Homo sapiens, UniProt Q00975); test: Fluorescent assay for CaV2.2 channels using potassium depolarization (VIPR/FLIPR); conditions: FLIPR data; for CAv2.2 IC50 Ratio closed/inact.: ratio closed/inactivated IC50
Method in brief: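 HEK293 cells stably expressing human Cav2.2 with α2δ and β subunits plus Kir2.3 were loaded with fluo-4 and incubated 30 min at 25 °C with compound in 4, 12, 25 or 30 mM potassium buffer. Channels were opened with 70 mM potassium (final) and calcium influx was read by fluorescence (Ex 480/Em 535 nm).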

T-type calcium channel [1] = molecular target: T-type calcium channel (Homo sapiens, UniProt O43497); test: T-type channel blocking, FLIPR data (Table 6); conditions: CAv3.1
Excerpt: (§1) Another method, high-throughput spectrophotometric assay, utilizes loading of the cell lines with a fluorescent dye sensitive to intracellular calcium concentration and subsequent examination of the effects of compounds on the ability of depolarization by potassium chloride or other means to alter intracellular calcium levels.

T-type calcium channel [2] = molecular target: T-type calcium channel (Homo sapiens, UniProt O95180); test: T-type channel blocking, FLIPR data (Table 6); conditions: for CAv3.2 IC50 Ratio closed/inact.: CAv3.2, ratio closed/inactivated IC50
Excerpt: as §1

CAv1.2 = CAv1.2 (Homo sapiens, UniProt Q13936); test: FLIPR data, CAv1.2 channel blocking (Table 6); conditions: for CAv1.2 IC50 Ratio closed/inact.: ratio closed/inactivated IC50
[3] = closed state, read-out: CAv2.2 IC50 Closed
[4] = inactivated state, read-out: CAv2.2 IC50 Inact.
[5] = CAv3.2, closed state, read-out: CAv3.2 IC50 Closed
[6] = closed state, read-out: CAv1.2 IC50 Closed
[7] = inactivated state, read-out: CAv1.2 IC50 Inact.
[8] = CAv3.2, inactivated state, read-out: CAv3.2 IC50 Inact.

Human Cav 2.2 channels, sequence (Q00975 whole entry): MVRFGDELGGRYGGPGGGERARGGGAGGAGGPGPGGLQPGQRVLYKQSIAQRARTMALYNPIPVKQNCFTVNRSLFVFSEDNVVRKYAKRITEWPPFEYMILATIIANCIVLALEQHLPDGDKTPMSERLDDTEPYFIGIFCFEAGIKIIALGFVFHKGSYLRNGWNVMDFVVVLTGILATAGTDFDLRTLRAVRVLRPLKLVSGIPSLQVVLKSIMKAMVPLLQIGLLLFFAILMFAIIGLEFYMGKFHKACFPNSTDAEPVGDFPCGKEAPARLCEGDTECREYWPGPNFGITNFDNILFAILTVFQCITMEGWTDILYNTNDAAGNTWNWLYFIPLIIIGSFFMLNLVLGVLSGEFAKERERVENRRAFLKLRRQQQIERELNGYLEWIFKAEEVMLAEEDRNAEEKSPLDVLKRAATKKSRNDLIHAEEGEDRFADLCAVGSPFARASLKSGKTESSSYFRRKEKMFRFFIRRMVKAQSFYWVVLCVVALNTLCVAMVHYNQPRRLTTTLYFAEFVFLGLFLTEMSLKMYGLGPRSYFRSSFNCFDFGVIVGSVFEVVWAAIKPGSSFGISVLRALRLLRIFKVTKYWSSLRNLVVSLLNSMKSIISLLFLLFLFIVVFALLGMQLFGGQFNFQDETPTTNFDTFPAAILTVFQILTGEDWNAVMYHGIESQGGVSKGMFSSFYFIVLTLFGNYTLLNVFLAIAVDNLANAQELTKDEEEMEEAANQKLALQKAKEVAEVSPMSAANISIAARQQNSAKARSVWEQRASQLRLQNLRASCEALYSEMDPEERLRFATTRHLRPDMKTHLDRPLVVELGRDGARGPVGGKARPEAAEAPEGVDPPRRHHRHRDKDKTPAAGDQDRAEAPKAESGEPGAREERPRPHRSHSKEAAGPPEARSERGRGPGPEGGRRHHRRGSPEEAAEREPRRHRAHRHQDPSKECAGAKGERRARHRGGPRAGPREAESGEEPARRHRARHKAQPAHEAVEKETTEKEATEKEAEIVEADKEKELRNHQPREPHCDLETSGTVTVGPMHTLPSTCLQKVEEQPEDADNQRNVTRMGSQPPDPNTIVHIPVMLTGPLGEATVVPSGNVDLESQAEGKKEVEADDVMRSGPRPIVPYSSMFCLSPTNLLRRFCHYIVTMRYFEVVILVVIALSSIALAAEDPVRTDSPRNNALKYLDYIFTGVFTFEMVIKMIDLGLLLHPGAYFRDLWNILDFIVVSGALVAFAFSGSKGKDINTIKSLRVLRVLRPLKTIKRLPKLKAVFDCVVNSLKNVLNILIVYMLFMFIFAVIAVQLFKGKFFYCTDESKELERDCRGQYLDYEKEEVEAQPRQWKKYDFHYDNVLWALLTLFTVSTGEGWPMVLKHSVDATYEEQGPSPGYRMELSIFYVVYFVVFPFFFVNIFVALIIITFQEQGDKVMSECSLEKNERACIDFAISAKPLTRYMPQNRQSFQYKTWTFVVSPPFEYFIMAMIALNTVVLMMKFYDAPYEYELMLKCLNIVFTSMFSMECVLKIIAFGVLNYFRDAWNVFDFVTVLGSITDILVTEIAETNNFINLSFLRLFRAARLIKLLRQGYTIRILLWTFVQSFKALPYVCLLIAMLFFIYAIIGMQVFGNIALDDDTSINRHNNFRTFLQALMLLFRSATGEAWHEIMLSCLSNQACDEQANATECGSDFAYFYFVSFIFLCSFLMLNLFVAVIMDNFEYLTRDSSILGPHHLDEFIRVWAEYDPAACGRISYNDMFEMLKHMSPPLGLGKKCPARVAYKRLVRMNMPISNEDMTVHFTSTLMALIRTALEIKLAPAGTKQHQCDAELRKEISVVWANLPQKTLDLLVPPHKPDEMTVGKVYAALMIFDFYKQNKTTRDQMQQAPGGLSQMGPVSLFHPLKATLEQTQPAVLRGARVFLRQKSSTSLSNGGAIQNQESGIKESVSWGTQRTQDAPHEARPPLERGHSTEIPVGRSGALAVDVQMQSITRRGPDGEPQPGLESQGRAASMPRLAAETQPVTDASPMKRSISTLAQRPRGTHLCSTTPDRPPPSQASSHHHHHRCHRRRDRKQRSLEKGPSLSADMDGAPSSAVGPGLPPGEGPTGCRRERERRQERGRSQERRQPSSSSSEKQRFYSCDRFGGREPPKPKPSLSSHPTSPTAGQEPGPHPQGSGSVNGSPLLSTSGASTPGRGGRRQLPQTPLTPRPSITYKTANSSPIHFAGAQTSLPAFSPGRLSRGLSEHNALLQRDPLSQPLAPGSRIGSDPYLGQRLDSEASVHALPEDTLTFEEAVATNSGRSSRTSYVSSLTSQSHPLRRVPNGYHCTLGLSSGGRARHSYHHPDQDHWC
Human Cav 2.2 channels, sequence (P54289 25-1103 partner): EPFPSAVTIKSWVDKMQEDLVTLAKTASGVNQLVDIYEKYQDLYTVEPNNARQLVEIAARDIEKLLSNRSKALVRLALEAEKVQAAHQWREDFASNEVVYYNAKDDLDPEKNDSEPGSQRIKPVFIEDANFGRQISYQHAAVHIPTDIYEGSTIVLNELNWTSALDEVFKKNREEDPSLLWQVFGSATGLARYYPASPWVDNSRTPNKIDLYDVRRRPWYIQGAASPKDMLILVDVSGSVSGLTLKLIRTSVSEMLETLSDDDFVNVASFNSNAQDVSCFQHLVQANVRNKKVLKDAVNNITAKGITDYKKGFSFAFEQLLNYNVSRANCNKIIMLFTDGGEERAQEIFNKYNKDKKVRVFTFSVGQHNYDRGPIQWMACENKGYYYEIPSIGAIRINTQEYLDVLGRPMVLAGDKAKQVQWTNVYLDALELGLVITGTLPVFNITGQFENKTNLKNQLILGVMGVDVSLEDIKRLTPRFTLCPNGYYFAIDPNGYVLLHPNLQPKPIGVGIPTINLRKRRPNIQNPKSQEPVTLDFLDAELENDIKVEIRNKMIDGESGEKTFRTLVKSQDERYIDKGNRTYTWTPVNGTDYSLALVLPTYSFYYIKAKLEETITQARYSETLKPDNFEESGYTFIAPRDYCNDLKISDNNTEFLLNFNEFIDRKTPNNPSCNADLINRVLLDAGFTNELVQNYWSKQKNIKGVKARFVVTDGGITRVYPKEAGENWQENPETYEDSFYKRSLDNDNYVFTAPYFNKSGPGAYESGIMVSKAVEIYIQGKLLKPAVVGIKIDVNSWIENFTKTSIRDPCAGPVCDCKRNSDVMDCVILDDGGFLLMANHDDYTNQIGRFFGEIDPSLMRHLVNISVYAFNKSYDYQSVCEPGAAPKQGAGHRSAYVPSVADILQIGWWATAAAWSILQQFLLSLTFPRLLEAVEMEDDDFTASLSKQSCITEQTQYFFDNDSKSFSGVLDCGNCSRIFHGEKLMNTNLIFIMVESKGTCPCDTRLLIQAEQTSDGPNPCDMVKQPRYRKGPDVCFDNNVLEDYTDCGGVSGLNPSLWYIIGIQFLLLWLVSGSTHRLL
Human Cav 2.2 channels, sequence (P54284 whole entry partner): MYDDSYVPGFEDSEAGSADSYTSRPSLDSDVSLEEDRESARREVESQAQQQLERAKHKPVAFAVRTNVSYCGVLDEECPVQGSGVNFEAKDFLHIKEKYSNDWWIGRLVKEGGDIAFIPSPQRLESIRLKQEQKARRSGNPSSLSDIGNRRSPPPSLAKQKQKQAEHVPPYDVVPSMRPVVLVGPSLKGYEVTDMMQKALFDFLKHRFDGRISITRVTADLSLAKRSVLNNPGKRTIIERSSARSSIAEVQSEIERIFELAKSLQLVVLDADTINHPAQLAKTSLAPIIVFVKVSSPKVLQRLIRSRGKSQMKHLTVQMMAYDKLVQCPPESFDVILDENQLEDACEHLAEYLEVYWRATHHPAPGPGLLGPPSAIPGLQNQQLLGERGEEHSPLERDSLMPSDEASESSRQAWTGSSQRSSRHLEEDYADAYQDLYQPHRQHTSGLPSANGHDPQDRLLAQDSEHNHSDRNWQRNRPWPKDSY

| SMILES | IC50 (Human Cav 2.2 channels; [3]) [µM] | IC50 (Human Cav 2.2 channels; [4]) [µM] | CAv2.2 IC50 Ratio closed/inact. (Human Cav 2.2 channels) | IC50 (T-type calcium channel [1]) [µM] | IC50 (T-type calcium channel [2]; [5]) [µM] | IC50 (CAv1.2; [6]) [µM] | IC50 (CAv1.2; [7]) [µM] | CAv1.2 IC50 Ratio closed/inact. (CAv1.2) | IC50 (T-type calcium channel [2]; [8]) [µM] | CAv3.2 IC50 Ratio closed/inact. (T-type calcium channel [2]) |
| --- | --- | --- | --- | --- | --- | --- | --- | --- | --- | --- |
| CC(C)S(=O)(=O)c1cc(C(F)(F)F)cnc1C(=O)NC[C@H]1C[C@@H](C(C)(C)S(=O)(=O)c2cccc(C(F)(F)F)c2)C1 [Compound 681] | 9.89 | 0.16 | 61.8 | 4.82 | 5.93 | ≥ 10 | 2.62 | 3.8 |  |  |
| CC(C)(C1CC(CNC(=O)c2cc(C(F)(F)F)n[nH]2)C1)S(=O)(=O)c1cccc(C(F)(F)F)c1 (stereo not shown) [Compound 682] | 6.64 | 0.53 | 12.5 | ≥ 10 | 2.31 | ≥ 10 | 2.16 | 4.6 |  |  |
| CC(C)([C@H]1C[C@@H](CNC(=O)c2ccnc(C(F)(F)F)n2)C1)S(=O)(=O)c1cccc(C(F)(F)F)c1 [Compound 683] | 2.77 | 0.26 | 10.7 | 5.53 | 5.45 | ≥ 10 | 6.11 | 1.6 |  |  |
| CC(C)([C@H]1C[C@@H](CNC(=O)c2ncc(C(F)(F)F)cn2)C1)S(=O)(=O)c1cccc(C(F)(F)F)c1 [Compound 684] | 8.03 | 0.65 | 12.4 | 4.65 | 4.67 | ≥ 10 | 5.35 | 1.9 |  |  |
| CC(C)([C@H]1C[C@@H](CNC(=O)c2ccc(F)c(Cl)c2)C1)S(=O)(=O)c1cccc(C(F)(F)F)c1 [Compound 685] | 1.87 | 0.18 | 10.4 | 0.38 | 0.44 | 4.71 | 1.01 | 4.7 |  |  |
| CC(C)([C@H]1C[C@@H](CNC(=O)c2ccc(OCC(F)(F)F)nc2)C1)S(=O)(=O)c1cccc(C(F)(F)F)c1 [Compound 686] | 2.47 | 0.26 | 9.5 | 1.17 | 1.2 | 4.42 | 1.1 | 4 |  |  |
| CC(C)([C@H]1C[C@@H](CNC(=O)c2ccnc(C(F)(F)F)c2)C1)S(=O)(=O)c1cccc(C(F)(F)F)c1 [Compound 687] | 4.11 | 0.53 | 7.8 | 2.61 | 1.65 | ≥ 10 | 2.39 | 4.2 |  |  |
| CC(C)([C@H]1C[C@@H](CNC(=O)c2ccc(Cl)c(OC(F)(F)F)c2)C1)S(=O)(=O)c1cccc(C(F)(F)F)c1 [Compound 688] | 3.4 | 0.22 | 15.5 | 0.25 | 0.45 | 4.59 | 0.45 | 10.2 | 0.17 | 2.6 |
| CC(C)([C@H]1C[C@@H](CNC(=O)c2ncc(C(F)(F)F)cc2S(C)(=O)=O)C1)S(=O)(=O)c1cccc(C(F)(F)F)c1 [Compound 690] | 10 | 0.45 | 22.2 | ≥ 10 | ≥ 10 | ≥ 10 | ≥ 10 |  |  |  |
| CC(C)([C@H]1C[C@@H](CNc2ccnc(C(F)(F)F)n2)C1)S(=O)(=O)c1cccc(C(F)(F)F)c1 [Compound 691] | 4.03 | 0.53 | 7.6 | 5.83 | 7.35 | 4.94 | 2.22 | 2.2 |  |  |
| CS(=O)(=O)c1cc(Cl)ccc1C(=O)NC[C@H]1C[C@H](S(=O)(=O)c2cccc(OC(F)(F)F)c2)C1 [Compound 692] | 7.75 | 0.78 | 9.9 | 9.81 | 7.92 | ≥ 10 | ≥ 10 |  | 2.48 | 3.2 |
| O=C(NC[C@H]1C[C@H](S(=O)(=O)c2cccc(OC(F)(F)F)c2)C1)c1ccc(Cl)cn1 [Compound 693] | 1.77 | 0.34 | 5.2 | ≥ 10 | 7.95 | ≥ 10 | 6.64 | 1.5 | 2.77 | 2.9 |
| O=C(NC[C@H]1C[C@H](S(=O)(=O)c2cccc(OC(F)(F)F)c2)C1)c1ccc(C(F)(F)F)cc1 [Compound 694] | 2.11 | 0.3 | 7 | 3.08 | 2.47 | 7.51 | 2.22 | 3.4 | 1 | 2.5 |
| O=C(NC[C@H]1C[C@H](S(=O)(=O)c2cccc(OC(F)(F)F)c2)C1)c1ccc(C(F)(F)F)nc1 [Compound 695] | 5.12 | 0.78 | 6.6 | 9.87 | 8.58 | ≥ 10 | ≥ 10 |  | 5.58 | 1.5 |
| O=C(NC[C@H]1C[C@H](S(=O)(=O)c2cccc(OC(F)(F)F)c2)C1)c1cnc(C(F)(F)F)nc1 [Compound 696] | 7.07 | 0.94 | 7.5 | ≥ 10 | 9.92 | ≥ 10 | 8.33 | 1.2 | 6.35 | 1.6 |
| O=C(NC[C@H]1C[C@H](S(=O)(=O)c2cccc(OC(F)(F)F)c2)C1)c1ccc(OCC(F)(F)F)nc1 [Compound 698] | 2.7 |  | 5.7 | 3.02 | 3.02 | 5.6 | 2.48 | 2.3 |  | 1.1 |
| O=C(NC[C@H]1C[C@H](S(=O)(=O)c2cc(F)cc(C(F)(F)F)c2)C1)c1ccc(Cl)cn1 [Compound 702] | 3.95 | 0.89 | 4.4 | ≥ 10 | 7.5 | 9.86 | 7.28 | 1.4 | 3.79 | 2 |
| O=C(NC[C@H]1C[C@H](S(=O)(=O)c2cc(F)cc(C(F)(F)F)c2)C1)c1ccc(C(F)(F)F)cc1 [Compound 703] | 6.49 | 0.83 | 7.8 | 1.86 | 4.14 | 8.18 | 4.83 | 1.7 | 1.39 | 3 |
